# ChEMBL document CHEMBL1201862, “PubChem BioAssay data set” (2004)
# Active and inactive are the calls of the source.
# Key:
# [1] = NIH3T3 cell viability loss – ATP luminescence, mouse fibroblasts, counter-screen, dose response (AID 2010); format: functional, cell-based;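 note: cells exposed to compound for about 90 hours before reading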
# [2] = Trypanosoma cruzi growth suppression in host cells – NIH3T3 host cells, beta-gal luminescence, confirmation (AID 2044); format: functional, cell-based;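 note: intracellular parasites grown in NIH/3T3 mouse fibroblasts as host cells; luminescent beta-galactosidase reporter signal from transgenic T. cruzi replicating inside host cells; inhibitors lower the luminescence signal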
# [3] = general mammalian cell viability loss – activator set, cherry-pick, cytotoxicity control for miR-122 modulator project, dose response (AID 720690); format: functional, cell-based;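 note: HEK293T human cells scored for general mammalian cytotoxicity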
# [4] = blockers of HIV-1 envelope-mediated cell-cell fusion – cherry-pick, dose response (AID 652057); format: functional, cell-based
# [5] = blockers of HIV-1 ZM109 envelope-driven cell-cell fusion – HeLa effector, CEM target cells, luciferase, cherry-pick, dose response (AID 652058); format: functional, cell-based;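 note: luciferase signal from HIV-1 Env mediated cell-cell fusion of effector and target cells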
# [6] = HIV-1 AD8 envelope cell-cell fusion blockers – cherry-pick, dose response (AID 652062); format: functional, cell-based;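 note: luciferase signal from cell-cell fusion driven by HIV-1 clade B AD8 Env; potency is for inhibitors of fusion seen as a drop in luminescence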
# [7] = viability loss in CEM21 cells – cell-based, plate reader, dry powder, cytotoxicity control, dose response (AID 687026); format: functional
# [8] = IC50 of Artemis nuclease activity blockers – biochemical, fluorescence intensity, dose response (AID 720701); format: functional;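 note: Artemis endonuclease enzyme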
# Aminopeptidase N = target: T1, Aminopeptidase N (Plasmodium falciparum FcB1/Columbia, UniProt O96935); assay: malaria alanyl aminopeptidase activity blockers – biochemical, fluorogenic H-Leu-NHMec substrate, 1536-well (AID 1445); parameters: species or system Plasmodium falciparum 3D7, 3D7
# T1 sequence (O96935 whole entry): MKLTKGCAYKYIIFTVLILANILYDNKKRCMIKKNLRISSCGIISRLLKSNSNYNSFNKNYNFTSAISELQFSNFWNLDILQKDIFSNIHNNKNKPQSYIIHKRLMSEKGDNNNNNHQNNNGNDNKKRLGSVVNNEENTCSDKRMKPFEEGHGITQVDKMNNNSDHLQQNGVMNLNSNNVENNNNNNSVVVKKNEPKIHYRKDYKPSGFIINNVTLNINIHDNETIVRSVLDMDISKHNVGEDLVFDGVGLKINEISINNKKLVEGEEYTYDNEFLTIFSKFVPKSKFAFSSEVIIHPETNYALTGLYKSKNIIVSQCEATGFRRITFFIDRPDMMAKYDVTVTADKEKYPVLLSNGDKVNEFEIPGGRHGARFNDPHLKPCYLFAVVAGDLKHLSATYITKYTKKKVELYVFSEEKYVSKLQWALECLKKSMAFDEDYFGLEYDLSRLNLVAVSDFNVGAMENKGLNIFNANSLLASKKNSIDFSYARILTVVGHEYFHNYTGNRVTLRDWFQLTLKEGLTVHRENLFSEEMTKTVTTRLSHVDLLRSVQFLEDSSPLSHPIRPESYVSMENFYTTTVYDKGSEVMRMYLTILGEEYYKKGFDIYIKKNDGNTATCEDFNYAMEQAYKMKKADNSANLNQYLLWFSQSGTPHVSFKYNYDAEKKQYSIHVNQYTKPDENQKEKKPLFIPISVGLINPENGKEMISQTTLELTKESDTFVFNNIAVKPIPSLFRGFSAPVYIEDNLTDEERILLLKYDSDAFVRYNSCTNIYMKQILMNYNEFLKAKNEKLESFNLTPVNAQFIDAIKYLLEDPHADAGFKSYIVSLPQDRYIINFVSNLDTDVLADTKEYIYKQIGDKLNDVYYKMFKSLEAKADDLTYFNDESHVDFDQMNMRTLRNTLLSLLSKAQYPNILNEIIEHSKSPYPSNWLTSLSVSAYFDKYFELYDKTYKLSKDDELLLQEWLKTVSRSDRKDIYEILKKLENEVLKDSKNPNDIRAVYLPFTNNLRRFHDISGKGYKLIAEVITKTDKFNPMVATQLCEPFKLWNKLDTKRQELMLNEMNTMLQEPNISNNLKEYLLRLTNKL
# [9] = Vero E6 cell cytotoxicity, dose response, cytotoxicity control for non-replicating M. tuberculosis project, secondary assay (AID 492998); format: functional, VeroE6; settings: Vero C1008
# [10] = microbe, parasite or virus in culture; format: functional; settings: Mycobacterium tuberculosis
# cells = format: functional
# [11] = target: NAD-dependent protein deacylase sirtuin-5, mitochondrial (Homo sapiens, UniProt Q9NXA8); assay: blockers of sirtuin-5 peptide desuccinylation – biochemical, fluorescence imaging, cherry-pick, set 6, dose response (AID 720597)
# [12] = A Cell-Based Confirmatory Screen for Compounds that Inhibit VEEV, TC-83 (8).; format: functional
# [13] = viability loss in MITF-independent A375 cells – cell-based, CellTiter-Glo luminescence, dry powder, set 2, counter-screen for MITF inhibitor project, dose response (AID 624489); format: functional; settings: A-375;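 note: actives are compounds lowering A375 viability meaning general cytotoxicity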
# [14] = cytotoxicity in MITF-independent A375 cells – cell-based, CellTiter-Glo luminescence, dry powder, set 4, counter-screen for MITF inhibitor project, dose response (AID 624364); format: functional; settings: A-375;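 note: A375 melanoma cells are MITF independent so this is a counter screen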
# Mu-type opioid receptor = Mu-type opioid receptor (Homo sapiens, UniProt P35372); assay: Late-stage results from the probe development effort to identify antagonists of OPRK1: luminescence-based cell-based dose response OPRM1 counterscreen.; format: functional
# [15] = target: Delta-type opioid receptor (Homo sapiens, UniProt P41143); assay: Late-stage results from the probe development effort to identify antagonists of OPRK1: fluorescence-based cell-based dose response OPRD1 counterscreen.; format: functional
# [16] = blockers of FN fibrillogenesis by fibroblasts – AH1F cells, Alexa488-FN fluorescence, cherry-picks, dose response (AID 1035475); format: functional, cell-based
# [17] = EF1alpha-driven Renilla reporter with control 3'UTR suppression – Clone20-Shn3RL cells, dual-Glo, cherry-pick, set 2, counter-screen for Shn3 3'UTR targeting project, dose response (AID 720724); format: functional, cell-based; settings: Dual-Go Shn3RL
# [18] = non-specific 3'UTR reporter inhibition in Clone20-Shn3RL – cell-based, Renilla luciferase, cherry-picked, counter-screen for Shn3 inhibitor project, dose response (AID 624133); format: functional
# [19] = reduction of Shn3 3'UTR-driven luciferase in osteoblasts – cell-based, Clone20 osteoblasts, firefly luciferase, cherry-picked, dose response (AID 624132); format: functional;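 note: firefly luciferase luminescence from reporter carrying the Shn3 3'UTR in osteoblasts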
# [20] = Shn3 3'UTR reporter signal decrease – cell-based, Clone20 osteoblasts, firefly luciferase, cherry-pick, set 2, Schnurri-3 inhibitor project, dose response (AID 720490); format: functional;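 note: actives lower the luminescence signal as inhibitors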
# [21] = IGROV1 cell killing – plate reader, dry powder samples, PAX8 inhibitor project, dose response (AID 743043); format: functional, cell-based; settings: IGROV-1
# [22] = A2780 cell killing – plate reader, dry powder samples, cytotoxicity control, dose response (AID 743046); format: functional, cell-based
# [23] = OVCAR8 cell viability loss – plate reader, dry powder samples, PAX8 project, dose response (AID 743197); format: functional, cell-based; settings: OVCAR-8
# [24] = OVCAR-3 cell viability loss – plate reader, dry powder samples, PAX8 inhibitor project, dose response (AID 743044); format: functional, cell-based
# Paired box protein Pax-8 = Paired box protein Pax-8 (Homo sapiens, UniProt Q06710); assay: PAX8 transcriptional activity inhibition in RMG-I – RMG-I cells, luciferase, cherry-pick, dose response (AID 687027); format: functional, cell-based;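 note: luciferase reporter driven by Pax8 target thyroperoxidase promoter measured by SteadyGlo luminescence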
# [25] = Late-stage results from the probe development effort to identify antagonists of arginine vasopressin receptor 1a (AVPR1a): fluorescence-based cell-based dose response AVPR1a inhibition assay.; format: functional
# Vasopressin V2 receptor = Vasopressin V2 receptor (Homo sapiens, UniProt P30518); assay: Late-stage results from the probe development effort to identify antagonists of arginine vasopressin receptor 1a (AVPR1a): fluorescence-based cell-based dose response AVPR2 inhibition counterscreen assay.; format: functional
# Vasopressin V1b receptor = Vasopressin V1b receptor (Homo sapiens, UniProt P47901); assay: Late-stage results from the probe development effort to identify antagonists of arginine vasopressin receptor 1a (AVPR1a): fluorescence-based cell-based dose response AVPR1b inhibition counterscreen assay.; format: functional
# [26] = Late-stage results from the probe development effort to identify antagonists of arginine vasopressin receptor 1a (AVPR1a): fluorescence-based cell-based dose response OXTR inhibition counterscreen assay.; format: functional
# [27] = Luminescence Cell-Based Dose Confirmation HTS to Identify Inhibitors of Platelet Dense Granule Release. [Related pubchem assays: 1663 (Primary HTS), 1678 (Summary of Project)]; format: functional
# [28] = viability loss in HepG2 hepatoma cells – cell-based, ATP luminescence, cherry-pick, activator set 2, cytotoxicity control, dose response (AID 1053143); format: functional
# [29] = target: Luciferin 4-monooxygenase (Photinus pyralis, UniProt P08659); assay: inhibition of purified Photinus pyralis luciferase – biochemical, luminescence, dose response (AID 1891)
# [30] = target: Potassium channel subfamily K member 3 (Homo sapiens, UniProt O14649); assay: inhibition of human KCNK3 channel flux – CHO cells, FluxOR thallium flux, SAR follow-up (AID 652212); format: functional
# [31] = target: Potassium channel subfamily K member 9 (Homo sapiens, UniProt Q9NPC2); assay: KCNK9 flux blockade, concentration-response – cell-based, FluxOR thallium flux, selectivity assay for TASK1 inhibitor project, SAR follow-up (AID 652211); format: functional;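 note: potency is for inhibitors of the channel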
# fMet-Leu-Phe receptor = fMet-Leu-Phe receptor (Homo sapiens, UniProt P21462); assay: formyl peptide receptor binders – dose response (AID 519); format: functional
# [32] = target: T2, Rac GTPase-activating protein 1 (Homo sapiens, UniProt Q9H0H5); assay: blockers of MgcRacGAP-driven Rac1 GTP hydrolysis – biochemical, ADP Hunter fluorescence, primary and confirmatory, confirmation (AID 624330); format: functional
# T2 sequence (Q9H0H5 whole entry): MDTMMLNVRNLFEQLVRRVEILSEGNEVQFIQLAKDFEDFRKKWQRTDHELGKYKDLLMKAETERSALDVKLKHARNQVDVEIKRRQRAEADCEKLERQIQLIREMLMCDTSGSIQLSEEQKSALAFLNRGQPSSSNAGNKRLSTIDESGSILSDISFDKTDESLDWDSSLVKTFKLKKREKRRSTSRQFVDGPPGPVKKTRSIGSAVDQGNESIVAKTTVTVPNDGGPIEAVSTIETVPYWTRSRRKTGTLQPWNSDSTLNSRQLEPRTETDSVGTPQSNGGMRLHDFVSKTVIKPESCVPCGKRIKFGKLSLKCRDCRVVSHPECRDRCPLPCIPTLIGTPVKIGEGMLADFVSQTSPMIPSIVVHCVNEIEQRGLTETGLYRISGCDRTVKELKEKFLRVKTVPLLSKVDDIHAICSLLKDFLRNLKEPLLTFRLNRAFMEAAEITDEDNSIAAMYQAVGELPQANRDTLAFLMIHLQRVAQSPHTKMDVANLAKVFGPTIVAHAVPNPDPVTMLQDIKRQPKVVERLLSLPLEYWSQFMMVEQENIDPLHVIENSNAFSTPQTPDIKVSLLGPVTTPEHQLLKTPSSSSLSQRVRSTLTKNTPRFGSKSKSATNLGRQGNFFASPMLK
# Chain of Vasopressin V2 receptor (P30518 whole entry): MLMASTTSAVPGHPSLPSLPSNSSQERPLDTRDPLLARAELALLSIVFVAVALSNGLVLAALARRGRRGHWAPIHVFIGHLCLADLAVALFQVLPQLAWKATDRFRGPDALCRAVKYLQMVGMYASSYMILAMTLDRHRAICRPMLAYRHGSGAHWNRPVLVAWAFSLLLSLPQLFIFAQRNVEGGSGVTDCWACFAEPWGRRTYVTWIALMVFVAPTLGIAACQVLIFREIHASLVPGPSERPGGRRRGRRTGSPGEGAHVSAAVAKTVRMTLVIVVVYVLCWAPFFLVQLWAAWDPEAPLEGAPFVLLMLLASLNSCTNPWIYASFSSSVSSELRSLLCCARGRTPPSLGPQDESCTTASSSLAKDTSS
# Chain of Vasopressin V1b receptor (P47901 whole entry): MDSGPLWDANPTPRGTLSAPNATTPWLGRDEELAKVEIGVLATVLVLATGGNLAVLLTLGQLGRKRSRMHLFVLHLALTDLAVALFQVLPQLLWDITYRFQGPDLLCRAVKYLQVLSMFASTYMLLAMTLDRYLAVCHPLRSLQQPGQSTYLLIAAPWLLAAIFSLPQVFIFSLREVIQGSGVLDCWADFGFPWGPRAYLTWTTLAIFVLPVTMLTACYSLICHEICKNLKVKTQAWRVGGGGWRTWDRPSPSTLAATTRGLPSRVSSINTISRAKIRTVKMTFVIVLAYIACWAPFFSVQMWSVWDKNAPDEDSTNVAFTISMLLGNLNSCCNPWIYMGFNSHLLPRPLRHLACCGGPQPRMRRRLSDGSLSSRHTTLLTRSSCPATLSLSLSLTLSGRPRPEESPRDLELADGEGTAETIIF
# Chain of Potassium channel subfamily K member 3 (O14649 whole entry): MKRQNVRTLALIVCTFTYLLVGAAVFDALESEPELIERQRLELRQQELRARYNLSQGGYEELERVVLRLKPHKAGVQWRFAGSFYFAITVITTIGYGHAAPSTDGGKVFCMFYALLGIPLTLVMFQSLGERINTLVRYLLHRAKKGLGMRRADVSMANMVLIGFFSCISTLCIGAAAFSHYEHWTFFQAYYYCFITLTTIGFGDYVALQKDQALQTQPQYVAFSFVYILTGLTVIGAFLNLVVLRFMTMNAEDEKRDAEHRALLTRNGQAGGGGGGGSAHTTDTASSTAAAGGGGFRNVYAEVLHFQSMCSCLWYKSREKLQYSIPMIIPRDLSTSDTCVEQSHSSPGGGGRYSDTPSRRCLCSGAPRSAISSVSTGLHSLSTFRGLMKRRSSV
# Chain of Potassium channel subfamily K member 9 (Q9NPC2 whole entry): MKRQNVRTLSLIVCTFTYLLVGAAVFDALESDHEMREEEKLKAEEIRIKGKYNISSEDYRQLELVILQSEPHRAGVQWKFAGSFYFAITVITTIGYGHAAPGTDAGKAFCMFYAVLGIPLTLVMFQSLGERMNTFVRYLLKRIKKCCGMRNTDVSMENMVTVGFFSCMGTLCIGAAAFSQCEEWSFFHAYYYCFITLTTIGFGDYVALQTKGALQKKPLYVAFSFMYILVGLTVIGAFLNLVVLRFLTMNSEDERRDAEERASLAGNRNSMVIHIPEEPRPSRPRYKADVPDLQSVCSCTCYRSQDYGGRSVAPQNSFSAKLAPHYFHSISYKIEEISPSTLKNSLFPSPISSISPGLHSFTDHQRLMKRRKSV
# Chain of Paired box protein Pax-8 (Q06710 whole entry): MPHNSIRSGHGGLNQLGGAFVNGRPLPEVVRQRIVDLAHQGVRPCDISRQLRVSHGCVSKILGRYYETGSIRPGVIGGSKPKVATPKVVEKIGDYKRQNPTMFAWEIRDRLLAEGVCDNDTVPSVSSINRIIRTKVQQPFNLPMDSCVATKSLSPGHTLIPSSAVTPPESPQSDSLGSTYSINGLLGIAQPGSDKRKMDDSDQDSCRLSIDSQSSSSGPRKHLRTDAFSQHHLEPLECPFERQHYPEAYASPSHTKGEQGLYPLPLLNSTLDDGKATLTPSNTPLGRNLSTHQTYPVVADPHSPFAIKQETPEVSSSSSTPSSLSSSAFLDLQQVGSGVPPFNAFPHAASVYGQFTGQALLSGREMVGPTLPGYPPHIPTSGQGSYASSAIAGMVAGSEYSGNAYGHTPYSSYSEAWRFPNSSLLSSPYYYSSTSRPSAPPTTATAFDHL
# Chain of NAD-dependent protein deacylase sirtuin-5, mitochondrial (Q9NXA8 whole entry): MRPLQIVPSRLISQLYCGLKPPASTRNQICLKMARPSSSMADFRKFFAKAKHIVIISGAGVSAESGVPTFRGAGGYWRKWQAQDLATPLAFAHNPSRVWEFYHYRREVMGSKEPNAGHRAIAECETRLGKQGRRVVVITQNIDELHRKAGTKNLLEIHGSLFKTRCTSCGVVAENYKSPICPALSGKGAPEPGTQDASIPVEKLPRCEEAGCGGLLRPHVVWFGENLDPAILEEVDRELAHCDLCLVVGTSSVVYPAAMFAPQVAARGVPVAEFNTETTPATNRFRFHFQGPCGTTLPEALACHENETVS
# Chain of Delta-type opioid receptor (P41143 whole entry): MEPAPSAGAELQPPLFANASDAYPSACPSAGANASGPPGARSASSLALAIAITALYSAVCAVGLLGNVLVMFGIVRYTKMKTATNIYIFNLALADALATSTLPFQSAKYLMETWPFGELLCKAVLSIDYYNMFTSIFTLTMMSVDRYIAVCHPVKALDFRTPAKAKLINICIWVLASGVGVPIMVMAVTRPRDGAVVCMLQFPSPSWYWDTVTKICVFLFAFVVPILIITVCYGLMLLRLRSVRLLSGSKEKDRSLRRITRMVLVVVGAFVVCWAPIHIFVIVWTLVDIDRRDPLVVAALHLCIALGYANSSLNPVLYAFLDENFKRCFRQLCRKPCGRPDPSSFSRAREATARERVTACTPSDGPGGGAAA
# Chain of fMet-Leu-Phe receptor (P21462 whole entry): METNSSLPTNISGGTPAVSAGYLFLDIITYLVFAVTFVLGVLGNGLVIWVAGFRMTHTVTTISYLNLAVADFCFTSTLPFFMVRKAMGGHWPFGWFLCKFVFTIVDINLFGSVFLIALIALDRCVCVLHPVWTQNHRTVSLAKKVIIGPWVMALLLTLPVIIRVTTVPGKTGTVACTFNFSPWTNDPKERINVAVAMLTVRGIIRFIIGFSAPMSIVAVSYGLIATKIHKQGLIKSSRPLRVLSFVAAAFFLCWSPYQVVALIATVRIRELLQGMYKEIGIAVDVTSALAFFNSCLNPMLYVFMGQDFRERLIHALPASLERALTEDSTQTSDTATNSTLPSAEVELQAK
# Chain of Mu-type opioid receptor (P35372 whole entry): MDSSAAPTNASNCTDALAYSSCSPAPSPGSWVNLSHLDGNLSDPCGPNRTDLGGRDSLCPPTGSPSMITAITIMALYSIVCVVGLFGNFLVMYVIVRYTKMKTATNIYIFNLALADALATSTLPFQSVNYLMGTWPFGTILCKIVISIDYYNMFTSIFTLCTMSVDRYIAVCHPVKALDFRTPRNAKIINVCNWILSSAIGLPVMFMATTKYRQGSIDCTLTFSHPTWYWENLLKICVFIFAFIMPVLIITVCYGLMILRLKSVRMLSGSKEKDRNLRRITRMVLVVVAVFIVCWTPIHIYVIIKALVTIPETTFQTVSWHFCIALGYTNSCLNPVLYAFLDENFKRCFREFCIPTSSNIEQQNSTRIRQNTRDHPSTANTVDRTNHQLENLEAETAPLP
# Chain of Luciferin 4-monooxygenase (P08659 whole entry): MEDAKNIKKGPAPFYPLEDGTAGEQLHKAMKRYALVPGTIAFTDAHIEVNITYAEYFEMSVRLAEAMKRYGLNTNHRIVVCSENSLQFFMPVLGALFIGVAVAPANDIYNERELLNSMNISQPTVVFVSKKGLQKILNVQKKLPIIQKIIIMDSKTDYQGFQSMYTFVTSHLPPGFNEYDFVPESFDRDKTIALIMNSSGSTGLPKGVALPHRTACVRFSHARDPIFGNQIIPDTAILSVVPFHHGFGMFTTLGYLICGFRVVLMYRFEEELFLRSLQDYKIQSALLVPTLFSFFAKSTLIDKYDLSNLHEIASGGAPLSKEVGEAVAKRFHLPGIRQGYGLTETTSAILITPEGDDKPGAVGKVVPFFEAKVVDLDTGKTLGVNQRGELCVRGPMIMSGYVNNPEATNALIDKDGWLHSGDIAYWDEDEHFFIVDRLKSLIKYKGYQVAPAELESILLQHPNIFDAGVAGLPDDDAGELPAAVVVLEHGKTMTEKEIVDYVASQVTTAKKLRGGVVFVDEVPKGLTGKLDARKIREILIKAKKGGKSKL
smiles,measurement,setting,value
O=C(Nc1nc(-c2cc3ccccc3o2)cs1)c1ccc(S(=O)(=O)N2CCCC2)cc1,EC50,[1],> 30 µM (not active)
same,EC50,[2],4.21 µM (active)
same,AC50,[3],10.9 µM (active)
Cc1ccc(S(=O)(=O)Nc2cccc3c2O[C@@H](CN(C)Cc2ccc(Cl)c(Cl)c2)[C@@H](C)CN([C@H](C)CO)C3=O)cc1,AC50,[4],12.1 µM (active)
same,AC50,[5],2.75 µM (active)
same,AC50,[6],65.4 µM (active)
same,AC50,[7],19.2 µM (active)
Cc1cc(Cl)ccc1OCCCC(=O)NO,IC50,[8],1.59 µM (active)
same,IC50,Aminopeptidase N,43.1 µM (active)
same,CC50,[9],18.9 µM (active)
same,CC50,[10],29.4 µM (active)
same,IC50,cells,27.9 µM (active)
C[C@@H]1CN([C@@H](C)CO)C(=O)c2cc(NS(C)(=O)=O)ccc2O[C@@H](C)CCCCO[C@H]1CN(C)Cc1ccc(C(F)(F)F)cc1,AC50,[11],> 30 µM (inactive)
CN1CCN(C)/C(=N/c2ccc(C#N)cc2C(=O)Nc2cccc(F)c2)C1,IC50,[12],0.84 µM (active)
O=C1C(Nc2ccccc2)=C(N2CCSCC2)C(=O)c2ccccc21,AC50,[13],69.3 µM (active)
same,AC50,[14],> 70 µM (inactive)
COC(=O)c1cc(Br)cnc1N1CCC(N[C@@H]2CCCC[C@H]2O)CC1,IC50,Mu-type opioid receptor,2.8 µM (active)
same,IC50,[15],3.36 µM (active)
C[C@H]1CN([C@@H](C)CO)C(=O)c2cc(NC(=O)CCCN(C)C)ccc2O[C@@H]1CN(C)Cc1ccc(-c2ccccc2)cc1,AC50,[16],> 70 µM (inactive)
CCOc1ccc(Cn2nnc(C(=O)Nc3cc(OC)cc(OC)c3)c2N)cc1,AC50,[17],38.5 µM (active)
same,AC50,[18],26.9 µM (active)
same,AC50,[19],5.3 µM (active)
same,AC50,[20],9.37 µM (active)
C[C@@H]1CCCCO[C@@H](CN(C)Cc2ccccc2)[C@H](C)CN([C@@H](C)CO)C(=O)c2cc(NC(=O)Nc3ccc(C(F)(F)F)cc3)ccc2O1,AC50,[21],47.9 µM (active)
same,AC50,[22],44.6 µM (active)
same,AC50,[23],42.2 µM (active)
same,AC50,[24],23.1 µM (active)
same,AC50,Paired box protein Pax-8,10.8 µM (active)
N#Cc1cccnc1N1CCC(C(=O)N(CC2CC2)c2ccc(Cl)cc2)CC1,IC50,[25],0.067 µM (active)
same,IC50,Vasopressin V2 receptor,24.4 µM (inactive)
same,IC50,Vasopressin V1b receptor,14 µM (inactive)
same,IC50,[26],6.8 µM (active)
Cc1ccccc1Nc1nc(N)c2ccccc2n1,EC50,[27],3.1 µM (active)
same,AC50,[28],26 µM (active)
same,EC50,[29],1.26 µM (active)
CCOc1cccc(NC(=O)c2cccc(NC(=O)C3CCCC3)c2)c1,IC50,[30],0.491 µM (active)
same,IC50,[31],4.07 µM (active)
CCCN=C(S)Nc1ccc(Nc2ccccc2)cc1,Ki,fMet-Leu-Phe receptor,> 66.7 µM (inactive)
same,IC50,[32],82.4 µM (active)
